The results in this text go back to US9346761B2, “Arginine methyltransferase inhibitors and uses thereof” (Epizyme, Inc., priority 2013, dated 2016).

Structures are written as SMILES.

The subject of assay [1] is mono-methyl arginine in RKO cells. The assay can be described thus: RKO methylation assay, In Cell Western for mono-methyl arginine and DNA content. It is filed as cell-based. To be noted: Homo sapiens; In Cell Western, RKO cells, 72 hours, percent activation of mono-methyl arginine signal; read-out: EC30. From the text: RKO adherent cells were purchased from ATCC (American Type Culture Collection), Manassas, Va., USA. DMEM/Glutamax medium, penicillin-streptomycin, heat inactivated fetal bovine serum, 0.05% trypsin and D-PBS were purchased from Life Technologies, Grand Island, N.Y., USA. Odyssey blocking buffer, 800CW goat anti-rabbit IgG (H+L) antibody, and Licor Odyssey infrared scanner were purchased from Licor Biosciences, Lincoln, Nebr., USA. Mono-methyl arginine antibody was purchased from Cell Signaling Technology, Danvers, Mass., USA. Methanol was purchased from VWR, Franklin, Mass., USA. 10% Tween 20 was purchased from KPL, Inc., Gaithersburg, Md., USA. […] was purchased from Biostatus Limited, Leicestershire, UK.
RKO adherent cells were maintained in growth medium (DMEM/Glutamax medium supplemented with 10% v/v heat inactivated fetal bovine serum and 100 units/mL penicillin-streptomycin) and cultured at 37° C. under 5% CO2
Cell Treatment, in Cell Western (ICW) for Detection of Mono-Methyl Arginine and DNA Content. […] Compound (100 nL) from a 96-well source plate was added directly to 384 well cell plate. Plates were incubated at 37° C., 5% CO2 for 72 hours. After three days of incubation, plates were brought to room temperature outside of the incubator for ten minutes and blotted on paper towels to remove cell media. 50 μL of ice cold 100% methanol was added directly to each well and incubated for 30 min at room temperature. After 30 min, plates were transferred to a Biotek EL406 plate washer and washed 2 times with 100 μL per well of wash buffer (1×PBS). Next 60 μL per well of Odyssey blocking buffer (Odyssey Buffer with 0.1% Tween 20 (v/v)) were added to each plate and incubated 1 hour at room temperature. Blocking buffer was removed and 20 μL per well of primary antibody was added (mono-methyl arginine diluted 1:200 in Odyssey buffer with 0.1% Tween 20 (v/v)) and plates were incubated overnight (16 hours) at 4° C. Plates were washed 5 times with 100 μL per well of wash buffer. […] The plates were washed 5 times with 100 μL per well wash buffer then 2 times with 100 μL per well of water. Plates were allowed to dry at room temperature then imaged on the Licor Odyssey machine which measures integrated intensity at 700 nm and 800 nm wavelengths. Both 700 and 800 channels were scanned.
Calculations: First, the ratio for each well was determined by:
Each plate included fourteen control wells of DMSO only treatment (minimum activation) as well as fourteen control wells for maximum activation treated with 20 μM of a reference compound. The average of the ratio values for each control type was calculated and used to determine the percent activation for each test well in the plate. Reference compound was serially diluted three-fold in DMSO for a total of nine test concentrations, beginning at 20 μM. Percent activation was determined and EC30 curves were generated using triplicate wells per concentration of compound.

Another assay deals with T1, Full-length human PRMT6 (Homo sapiens, UniProt Q96LA8).
T1 construct: Flag-PRMT6-His was eluted with 200 ug/ml FLAG peptide in the same buffer; made in house; host or cells: HEK 293F cells (BacMam virus, pFastBacMam)
T1 sequence (Q96LA8 with tags, fused parts or gaps): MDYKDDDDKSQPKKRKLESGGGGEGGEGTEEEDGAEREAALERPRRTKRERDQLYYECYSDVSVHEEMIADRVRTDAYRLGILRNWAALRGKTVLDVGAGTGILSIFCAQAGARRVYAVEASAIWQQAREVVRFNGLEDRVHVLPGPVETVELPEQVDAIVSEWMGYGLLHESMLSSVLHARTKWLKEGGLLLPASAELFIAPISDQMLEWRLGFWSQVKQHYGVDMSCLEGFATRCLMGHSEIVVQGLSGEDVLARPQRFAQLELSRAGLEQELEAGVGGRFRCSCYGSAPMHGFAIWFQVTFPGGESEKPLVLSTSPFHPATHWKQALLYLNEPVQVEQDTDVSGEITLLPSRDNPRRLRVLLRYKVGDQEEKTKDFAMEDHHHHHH
The assay can be described thus: PRMT6 biochemical assay (3H-SAM Flashplate, peptide substrate). The source says:
General Materials. S-adenosylmethionine (SAM), S-adenosylhomocysteine (SAH), bicine, Tween20, dimethylsulfoxide (DMSO), bovine skin gelatin (BSG), sodium butyrate and Tris(2-carboxyethyl)phosphine hydrochloride solution (TCEP) were purchased from Sigma-Aldrich at the highest level of purity possible. ^3H-SAM was purchase from American Radiolabeled Chemicals with a specific activity of 80 Ci/mmol. 384-well streptavidin Flashplates were purchased from PerkinElmer.
Substrates. Peptide representative of human histone H4 residues 36-50 was synthesized with an N-terminal linker-affinity tag motif and a C-terminal amide cap by 21st Century Biochemicals.
The amplified gene was subcloned into pFastBacMam (Viva Biotech).
Protein Expression. Recombinant baculovirus were generated according to Bac-to-Bac kit instructions (Life Technologies). […] Infections were carried out at 37° C. for 48 hours, harvested by centrifugation, and stored at −80° C. for purification.
Protein Purification. […] Column was washed with 20 mM imidazole in the same buffer and Flag-PRMT6-His was eluted with 150 mM imidazole. Pooled fractions were dialysed against buffer Ni-A and further purified by anti-flag M2 affinity chromatography. Flag-PRMT6-His was eluted with 200 ug/ml FLAG peptide in the same buffer. Pooled fractions were dialysed in 20 mM Tris, 150 mM NaCl, 10% glycerol and 5 mM β-mercaptoethanol, pH 7.8.
(§1) General Procedure for PRMT6 Enzyme Assays on Peptide Substrates. The assays were all performed in a buffer consisting of 20 mM Bicine (pH=7.6), 1 mM TCEP, 0.005% BSG, and 0.002% Tween 20, prepared on the day of use. […] DMSO (1 ul) was added to Columns 11, 12, 23, 24, rows A-H for the maximum signal control and 1 ul of SAH, a known product and inhibitor of PRMT6, was added to columns 11, 12, 23, 24, rows I-P for the minimum signal control. A cocktail (40 ul) containing the PRMT6 enzyme was added by Multidrop Combi (Thermo-Fisher). The compounds were allowed to incubate with PRMT6 for 30 min at room temperature, then a cocktail (10 ul) containing SAM and peptide was added to initiate the reaction (final volume=51 ul). […] The assays were stopped by the addition of non-radiolabeled SAM (10 ul) to a final concentration of 400 uM, which dilutes the ^3H-SAM to a level where its incorporation into the peptide substrate is no longer detectable. 50 ul of the reaction in the 384-well polypropylene plate was then transferred to a 384-well Flashplate and the biotinylated peptides were allowed to bind to the streptavidin surface for at least 1 hour before being washed once with 0.1% Tween20 in a Biotek ELx405 plate washer. The plates were then read in a PerkinElmer TopCount plate reader to measure the quantity of ^3H-labeled peptide bound to the Flashplate surface, measured as disintegrations per minute (dpm) or alternatively, referred to as counts per minute (cpm).
(§2) Where dpm=disintegrations per minute, cmpd=signal in assay well, and min and max are the respective minimum and maximum signal controls.
(§3) Where top and bottom are the normally allowed to float, but may be fixed at 100 or 0 respectively in a 3-parameter fit. The Hill Coefficient normally allowed to float but may also be fixed at 1 in a 3-parameter fit. Y is the % inhibition and X is the compound concentration.

Assay [2] deals with T2, Full-length human PRMT1 isoform 1 (Homo sapiens, UniProt Q99873).
T2 construct: GST-tagged PRMT1; made in house; host or cells: High Five insect cells (baculovirus, pFastBacI)
T2 sequence (Q99873 with tags, fused parts or gaps): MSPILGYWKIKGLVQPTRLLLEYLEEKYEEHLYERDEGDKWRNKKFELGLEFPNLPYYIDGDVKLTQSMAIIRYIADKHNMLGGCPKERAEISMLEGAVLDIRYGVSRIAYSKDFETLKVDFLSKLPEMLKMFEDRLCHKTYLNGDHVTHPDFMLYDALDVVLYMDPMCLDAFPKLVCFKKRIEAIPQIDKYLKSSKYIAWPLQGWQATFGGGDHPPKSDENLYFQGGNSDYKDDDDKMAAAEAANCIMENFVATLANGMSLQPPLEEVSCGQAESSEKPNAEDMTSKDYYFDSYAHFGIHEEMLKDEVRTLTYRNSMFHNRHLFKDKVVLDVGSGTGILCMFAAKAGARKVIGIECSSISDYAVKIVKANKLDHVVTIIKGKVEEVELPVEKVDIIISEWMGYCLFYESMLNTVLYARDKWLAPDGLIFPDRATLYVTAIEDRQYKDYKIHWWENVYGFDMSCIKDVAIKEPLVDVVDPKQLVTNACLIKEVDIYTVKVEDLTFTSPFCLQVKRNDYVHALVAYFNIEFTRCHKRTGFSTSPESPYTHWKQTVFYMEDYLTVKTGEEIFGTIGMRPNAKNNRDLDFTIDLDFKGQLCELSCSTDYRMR
Put plainly: PRMT1 biochemical assay (3H-SAM Flashplate, peptide substrate).
From the text: General Materials. S-adenosylmethionine (SAM), S-adenosylhomocysteine (SAH), bicine, Tween20, dimethylsulfoxide (DMSO), bovine skin gelatin (BSG), and Tris(2-carboxyethyl)phosphine hydrochloride solution (TCEP) were purchased from Sigma-Aldrich at the highest level of purity possible. ^3H-SAM was purchase from American Radiolabeled Chemicals with a specific activity of 80 Ci/mmol. 384-well streptavidin Flashplates were purchased from PerkinElmer.
Protein Expression. Recombinant baculovirus were generated according to Bac-to-Bac kit instructions (Life Technologies). […] Infections were carried out at 27° C. for 48 hours, harvested by centrifugation, and stored at −80° C. for purification.
Protein Purification. […] GST-tagged PRMT1 was eluted with 50 mM Tris, 2 mM glutathione, pH 7.8, dialysed in buffer A and concentrated to 1 mg/mL.
as §1, with “PRMT1” for “PRMT6”, “PRMT1,” for “PRMT6,”, “300” for “400”
as §2, §3

Turning to `CNCCN(C)Cc1c[nH]nc1-c1ccc(OC(C)C)cc1` [Compound 19, N^1-((3-(4-isopropoxyphenyl)-1H-pyrazol-4-yl)methyl)-N^1,N^2-dimethylethane-1,2-diamine], the EC30 (commonly the concentration needed for an effect of 30%) in assay [1] was < 3000 nM. In addition, the IC50 (in general, the concentration that inhibits the measured activity by half) against Full-length human PRMT6 is < 100 nM.

On to `CNCCN(C)Cc1c[nH]nc1-c1ccc(OC2CCOCC2)cc1` [Compound 175], for which the IC50 (in assay [2]; on Full-length human PRMT6) was < 100 nM each time. The EC30 in assay [1] was < 3000 nM.

As to `CC(C)Oc1ccc(-c2nn(C)cc2CN(C)CCN)cc1` [Compound 176], the IC50 (in assay [2]; at Full-length human PRMT6) was < 100 nM in each case. Besides, in assay [1], the EC30 was < 3000 nM.

For the compound `CC(C)Oc1ccc(-c2c(CN(C)CCN)cnn2C)cc1` [Compound 177], the half-maximal inhibitory concentration (IC50) (in assay [2]; at Full-length human PRMT6) was < 100 nM each time. The concentration for an effect of 30% (EC30) in assay [1] is < 3000 nM.

`CN(CCN)Cc1c[nH]nc1-c1ccc(OC2CCOCC2)cc1` [Compound 178]: the half-maximal inhibitory concentration (IC50) (in assay [2]; at Full-length human PRMT6) was < 100 nM each time. Besides, the EC30 in assay [1] was < 3000 nM.

In the case of `COCCCOc1ccc(-c2n[nH]cc2CN(C)CCN)cc1` [Compound 179], the concentration for half-maximal inhibition (IC50) (in assay [2]; against Full-length human PRMT6) was < 100 nM throughout. In addition, the EC30 in assay [1] was < 3000 nM.

Take `CNCCN(C)Cc1c[nH]nc1-c1ccc(OC(C)C)c(F)c1` [Compound 181]: the IC50 (in assay [2]; against Full-length human PRMT6) was < 100 nM each time. Further, the EC30 in assay [1] was > 12000 nM.

For the compound `CN(CCN)Cc1c[nH]nc1-c1ccc(OCCCN2CCOCC2)cc1` [Compound 186], the EC30 in assay [1] is > 12000 nM. Besides, the IC50 on Full-length human PRMT6 is < 100 nM.

`CN(CCN)Cc1c[nH]nc1-c1ccc(N2CCN(C(=O)Cc3ccccc3)CC2)cc1` [Compound 190]: the EC30 in assay [1] fell in the range of 3010 to 12000 nM. Moreover, the IC50 against Full-length human PRMT6 was < 100 nM.

Consider `CN(CCN)Cc1c[nH]nc1-c1ccc(Oc2ccccc2)cc1` [Compound 200], for which, in assay [1], the EC30 is < 3000 nM.

Turning to `CNCCN(C)Cc1cn[nH]c1-c1ccc(OC(C)C)c(Cl)c1` [Compound 201], the EC30 in assay [1] is < 3000 nM. Moreover, the IC50 against Full-length human PRMT6 was < 100 nM.

On to `CNCCN(C)Cc1cnn(C)c1-c1ccc(OC(C)C)c(Cl)c1` [Compound 220, N^1-((5-(3-chloro-4-isopropoxyphenyl)-1-methyl-1H-pyrazol-4-yl)methyl)-N^1,N^2-dimethylethane-1,2-diamine], for which the concentration for an effect of 30% (EC30) in assay [1] is < 3000 nM. For the same compound, the half-inhibitory concentration (IC50) against Full-length human PRMT6 is < 100 nM.

With `COCCn1cnc(-c2ccc(C#N)cc2)c1CN(C)CCN` [Compound 223], the IC50 in assay [2] is > 10000 nM. In addition, the 30% effect concentration (EC30) in assay [1] was > 12000 nM.

As to `CNCCN(C)Cc1c[nH]nc1-c1cc(C(C)C)cc(C(C)C)c1` [Compound 229, N^1-((3-(3,5-diisopropylphenyl)-1H-pyrazol-4-yl)methyl)-N^1,N^2-dimethylethane-1,2-diamine], the IC50 is < 100 nM in assay [2] and 101 to 1000 nM against Full-length human PRMT6. In assay [1], the 30% effect concentration (EC30) fell in the range of 3010 to 12000 nM.

For `CNCCN(C)Cc1c[nH]nc1-c1ccc(Oc2cccc(OC)c2)cc1` [Compound 230], the half-maximal inhibitory concentration (IC50) (in assay [2]; against Full-length human PRMT6) was < 100 nM each time. Moreover, the EC30 in assay [1] is < 3000 nM.

`CNCCN(C)Cc1c[nH]nc1-c1ccc(Oc2cccc(F)c2)cc1` [Compound 231]: the half-inhibitory concentration (IC50) (in assay [2]; against Full-length human PRMT6) was < 100 nM throughout. Also, in assay [1], the EC30 was < 3000 nM.

Turning to `CNCCN(C)Cc1c[nH]nc1-c1ccc(Oc2ccccc2)c(C(=O)NC)c1` [Compound 232], the IC50 (in assay [2]; at Full-length human PRMT6) was < 100 nM throughout. For the same compound, the 30% effect concentration (EC30) in assay [1] was in the range of 3010 to 12000 nM.

Consider `CNCCN(C)Cc1c[nH]nc1-c1ccc(Oc2ccccc2)c(C(=O)N(C)C)c1` [Compound 233], for which the IC50 (in assay [2]; against Full-length human PRMT6) was < 100 nM each time. The 30% effect concentration (EC30) in assay [1] is > 12000 nM.

For `CNCCN(C)Cc1c[nH]nc1-c1ccc(Oc2cccc(C(=O)N(C)C)c2)cc1` [Compound 264], the EC30 in assay [1] lay in the range of 3010 to 12000 nM. Further, the half-inhibitory concentration (IC50) at Full-length human PRMT6 was < 100 nM.

For the compound `CNCCN(C)Cc1n[nH]cc1-c1ccc(Oc2cccc(C(=O)N(C)C)c2)cc1` [Compound 269], in assay [1], the concentration for an effect of 30% (EC30) was > 12000 nM. On Full-length human PRMT6, the IC50 is < 100 nM.

`CNCCN(C)Cc1n[nH]cc1-c1ccc(Oc2ccccc2C(=O)NC)cc1` [Compound 278]: in assay [1], the EC30 was in the range of 3010 to 12000 nM. Moreover, the IC50 against Full-length human PRMT6 was < 100 nM.
